These results are taken from patent US9309235B2, “SGC stimulators” (IRONWOOD PHARMACEUTICALS, INC., priority 2012, dated 2016).

In experiment [1] the target is T1, soluble guanylate cyclase (sGC) (Homo sapiens, UniProt Q02108+Q02153).
T1 construct: endogenously expressing soluble guanylate cyclase (sGC); endogenous in cells; host or cells: HEK293
T1 sequence (Q02153 1-619): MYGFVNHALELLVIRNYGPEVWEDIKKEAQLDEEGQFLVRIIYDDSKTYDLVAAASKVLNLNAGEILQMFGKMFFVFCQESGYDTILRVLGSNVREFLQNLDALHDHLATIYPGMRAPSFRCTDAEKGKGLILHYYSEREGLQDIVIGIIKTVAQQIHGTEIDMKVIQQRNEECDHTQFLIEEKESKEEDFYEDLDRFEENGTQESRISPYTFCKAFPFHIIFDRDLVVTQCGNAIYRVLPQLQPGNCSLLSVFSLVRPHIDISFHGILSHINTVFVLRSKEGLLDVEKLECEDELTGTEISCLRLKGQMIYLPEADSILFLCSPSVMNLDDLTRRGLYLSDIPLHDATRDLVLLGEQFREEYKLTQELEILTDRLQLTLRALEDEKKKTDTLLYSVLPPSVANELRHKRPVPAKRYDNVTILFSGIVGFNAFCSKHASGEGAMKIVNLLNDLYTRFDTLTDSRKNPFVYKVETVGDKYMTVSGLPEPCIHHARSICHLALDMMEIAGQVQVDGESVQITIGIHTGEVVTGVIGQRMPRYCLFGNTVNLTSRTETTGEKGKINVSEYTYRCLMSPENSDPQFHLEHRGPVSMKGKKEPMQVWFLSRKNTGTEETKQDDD
T1 sequence (Q02108 1-690): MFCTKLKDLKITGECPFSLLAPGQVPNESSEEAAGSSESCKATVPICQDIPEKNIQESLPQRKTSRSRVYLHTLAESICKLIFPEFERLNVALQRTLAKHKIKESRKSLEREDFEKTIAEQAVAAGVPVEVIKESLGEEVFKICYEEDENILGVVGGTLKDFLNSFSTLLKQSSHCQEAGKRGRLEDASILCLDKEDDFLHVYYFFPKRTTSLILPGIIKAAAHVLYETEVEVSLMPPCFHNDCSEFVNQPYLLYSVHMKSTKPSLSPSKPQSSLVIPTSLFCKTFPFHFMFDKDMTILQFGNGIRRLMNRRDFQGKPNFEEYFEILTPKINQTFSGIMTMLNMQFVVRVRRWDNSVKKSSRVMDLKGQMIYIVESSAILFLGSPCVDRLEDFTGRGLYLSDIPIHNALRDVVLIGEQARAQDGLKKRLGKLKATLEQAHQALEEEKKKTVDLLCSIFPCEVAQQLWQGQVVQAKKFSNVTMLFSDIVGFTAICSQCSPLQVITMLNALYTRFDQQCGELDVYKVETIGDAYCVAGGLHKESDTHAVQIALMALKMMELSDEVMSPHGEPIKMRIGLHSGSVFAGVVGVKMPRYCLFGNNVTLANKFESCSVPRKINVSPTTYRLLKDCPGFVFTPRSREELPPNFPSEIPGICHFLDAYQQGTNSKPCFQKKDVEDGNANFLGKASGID
Briefly: sGC-HEK-cGMP assay (run with SNP incubation). In kind it is cell-based. The note with it: for EC50: full concentration-response curve, with SNP incubation, read-out: HEK assay EC50-unconstrained; for EC50 / Emax: top not fitted to 100%; for Emax: maximum activity from full concentration-response curve, relative to positive control BAY 41-2272, read-out: HEK assay Emax-unconstrained (Percent); for Emax at 1 µM: test compound 1 μM, read-out: HEK assay (Percent Emax at 1 μM); for Emax at 1 µM / Emax at 10 µM / Emax at 30 µM: 10 μM SNP, Emax = 100% is BAY 41-2272 at 10 μM in the presence of 100 μM SNP; for Emax at 10 µM: test compound 10 μM, read-out: HEK assay (Percent Emax at 10 μM); for Emax at 30 µM: test compound 30 μM, read-out: HEK assay (Percent Emax at 30 μM). Here is the method:
(Assay Run with SNP Incubation)
Human embryonic kidney cells (HEK293), endogenously expressing soluble guanylate cyclase (sGC), were used to evaluate the activity of test compounds. Compounds stimulating the sGC receptor should cause an increase in the intracellular concentration of cGMP. HEK 293 cells were seeded in Dulbecco's Modification of Eagle's Medium supplemented with fetal bovine serum (10% final) and L-glutamine (2 mM final) in a 200 μL volume at a density of 1×10^5 cells/well in a poly-D-lysine coated 96 well flat bottom plate and grown overnight at 37° C. Medium was aspirated and cells were washed with 1× Hank's Buffered Saline Salt Solution (200 μL). Cells were then incubated for 15 minutes at 37° C. with 200 μL of a 0.5 mM 3-isobutyl-1-methylxanthine (IBMX) solution. Test article and sodium nitroprusside solutions (x μM concentration for test article solution and 10 μM concentration for SNP solution; wherein x is one of the following concentrations);
were then added to the assay mixture (2 μL each) and the resulting mixture incubated at 37° C. for 10 minutes. After the 10 minute incubation, the assay mixture was aspirated and 0.1M HCl (200 μL) was added to the cells. The plate was incubated at 4° C. for 30 minutes in the 0.1M HCl to stop the reaction and lyse the cells. The plates were then centrifuged at 1,200 g for 5 minutes at room temperature. Supernatants were collected and transferred to a new flat bottom 96 well plate for analysis by HPLC-MS. Vehicle controls were carried out using DMSO (1%) solutions. A known sGC stimulator, BAY 41-2272, was used as the positive control. Samples were diluted with an equal volume of 1 M Ammonium Acetate (pH 7) to neutralize samples for better chromatography. A 2× cGMP standard solution was prepared in 0.1 M HCl and then diluted with an equal volume of 1 M Ammonium Acetate, with the following final concentrations in nM: 1024, 512, 256, 128, 64, 32, 16, 8, 4, 2, 1. cGMP concentrations in the test plates were determined from each sample using the LC/MS conditions shown in Table 2 below and the calculated cGMP standard curve. EC50 values were calculated from concentration-response curves generated with GraphPad Prism Software.
The biological activities of some of the compounds of Formula I determined with the sGC—HEK assay with SNP incubation are summarized in Tables 3A and 3B.

Experiment [2] deals with lambs with acute pulmonary hypertension. To be noted: cited from earlier work; for effect on mean arterial pressure / pulmonary vasodilation / transpulmonary cGMP release / systemic arterial oxygenation: inhaled microparticles, awake lambs; for effect on mean arterial pressure / pulmonary vasodilation / transpulmonary cGMP release: U-46619 infusion.
Experiment [3] has as its target T2, Human soluble guanylate cyclase enzyme (hsGC) (Homo sapiens, UniProt Q02108+Q02153).
T2 construct: purchased Enzo Inc. ALX-201-177
T2 sequence (Q02153 1-619): T1 sequence (Q02153 1-619)
T2 sequence (Q02108 1-690): T1 sequence (Q02108 1-690)
As to the kind of experiment: Purified human sGC enzyme synergy assay in the presence of sodium nitroprusside (SNP). In kind it is biochemical. To be noted: 30 μM compound in the presence of 1 μM SNP; fold increase over DMSO controls. As for the experimental part: Human soluble guanylate cyclase enzyme (hsGC) obtained from Enzo Inc. (P/N: ALX-201-177) was used to evaluate the activity of test compounds. The assay reactions contained 0.1 M Tris (pH 8.0), 0.5 mg/mL BSA (pH 8.0), 2 mM DTT, 2 mM MgCl2, 300 μM GTP, 1 mM 3-isobutyl-1-methylxanthine (IBMX) and 5 ng human soluble guanylate cyclase enzyme. Test compounds in DMSO were then added (2 μL, 10 or 30 μM final concentration) and incubated (water, 200 μL, 96-well plate format) at 37° C. for 30 minutes. The controls were carried out using 2 μL DMSO. After the 30 minute incubation, the reaction was stopped with the addition of 200 μL of cold methanol. The plate was then centrifuged at 3,200 rpm for 10 minutes at room temperature. Supernatants (200 μL) were collected and transferred to a new 96 well plate for analysis by HPLC LC/MS/MS.
An 8 point cGMP (Sigma-Aldrich P/N: G6129) standard curve was prepared in assay buffer ranging from 0.156-20 μM. Samples for the cGMP standard curve were then diluted with an equal volume of methanol resulting in final cGMP concentrations of 0.078-10 μM.
The cGMP standard curve was generated using GraphPad Prism Software.
Calculations: Specific Activity was determined by the amount of cGMP formed (nmoles) per mg of sGC per min. Enzyme “fold-change” was calculated by dividing Specific Activity for test compounds by Specific Activity of DMSO controls. […]

For `Oc1nc(-c2cc(-c3ccon3)n(Cc3cccs3)n2)ncc1F` [Compound I-4], in experiment [1], the EC50 was 5 to 10 µM, the Emax lay within 60 to 80%, the Emax at 1 µM lay within 0 to 10% and the Emax at 10 µM was in the range of 40 to 60%. In addition, in experiment [1], the Emax at 30 µM lay in the range of 40 to 60%.
Regarding `Oc1nc(-c2cc(-c3ccon3)n(Cc3sccc3F)n2)ncc1F` [Compound I-3], in experiment [1], the EC50 is 0.01 to 0.1 µM, the Emax lay in the range of 40 to 60%, the Emax at 1 µM is 40 to 60% and the Emax at 10 µM was 40 to 60%. Also, the Emax at 30 µM in experiment [1] was 60 to 80%.
As to `O=C(O)CCCCN(CCc1ccccc1OCc1ccc(CCc2ccccc2)cc1)Cc1ccc(C(=O)O)cc1` [BAY 58-2667], the “pulmonary vasodilation and transpulmonary cGMP release after treatment with ODQ” value in experiment [2] (inhaled microparticles after intravenous ODQ) was “greatly enhanced”. Moreover, in experiment [2], the “effect on mean arterial pressure” value is “without significant effect”, the pulmonary vasodilation entry is given as “dose dependent pulmonary vasodilation”, the “transpulmonary cGMP release” value is listed as “increased transpulmonary cGMP release” and the systemic arterial oxygenation result is “increased systemic arterial oxygenation”.
With `Nc1nc(-c2nn(Cc3ccccc3F)c3ncccc23)ncc1C1CC1` [BAY 41-2272], in experiment [2], the “effect on mean arterial pressure” value is “without significant effect”, the pulmonary vasodilation result is on record as “dose dependent pulmonary vasodilation” and the “transpulmonary cGMP release” value is listed as “increased transpulmonary cGMP release”.
Consider `Nc1ccnc(-c2cc(-c3ccon3)n(Cc3ccsc3)n2)n1` [Compound I-1], for which, in experiment [1], the EC50 fell in the range of 1 to 5 µM, the Emax lay within 60 to 80%, the Emax at 1 µM lay within 20 to 40% and the Emax at 10 µM lay in the range of 40 to 60%. The Emax at 30 µM in experiment [1] fell in the range of 60 to 80%. The “Enzyme Activity (increase at 30 μM with SNP)” value in experiment [3] is on record as “D (D = 10 or <20 fold increase)”.
As for `Oc1nc(-c2cc(-c3ccon3)n(Cc3ccsc3)n2)ncc1F` [Compound I-2], in experiment [1], the EC50 lay in the range of 0.5 to 1 µM, the Emax fell in the range of 40 to 60%, the Emax at 1 µM was 20 to 40% and the Emax at 10 µM lay within 40 to 60%. For the same compound, the Emax at 30 µM in experiment [1] lay in the range of 40 to 60%. The “Enzyme Activity (increase at 30 μM with SNP)” value in experiment [3] is listed as “D (D = 10 or <20 fold increase)”.
In the case of `O=c1onc2cnc3ccccc3n12` [ODQ, 1H-[1,2,4]oxadiazolo[4,3-a]quinoxalin-1-one], the “pulmonary vasodilator effect of iNO” value in experiment [2] (intravenous administration) is “markedly reduced”.
`Nc1nc(-c2nn(Cc3ccccc3F)c3ncccc23)nc(N)c1N1CCOCC1` [BAY 41-8543]: the “magnitude and duration of pulmonary vasodilation induced by iNO” value in experiment [2] (after inhaling microparticles) is “augmented”. In experiment [2], the “effect on mean arterial pressure” value is “without significant effect”, the pulmonary vasodilation result was “dose dependent pulmonary vasodilation”, the “transpulmonary cGMP release” value is reported as “increased transpulmonary cGMP release” and the systemic arterial oxygenation entry is recorded as “increased systemic arterial oxygenation”.
